pEC50, pIC50: −log10 of the molar value. Like-named read-outs stand apart in the source and are kept apart here.
Experiments:
TNF α-induced SIRS = experiment: TNF α-induced mouse SIRS model; format: in vivo; conditions: 40 mg/kg oral once before TNF α 500 μg/kg i.v.
Protocol: TNF α formulated in sterile normal saline was administered at a dose of 500 μg/kg by tail vein injection for modeling. The body temperature of the mice was measured by an infrared electric thermometer. The orally-administrated vehicle was 25% castor oil in ethanol and 75% normal saline. Compounds 94 and 46 and RIPK1 positive compound GSK2982772 were administered orally before modeling with a dose of 40 mg/kg. Body temperature and the survival of mice were recorded every hour and recorded for 24 h and 48 h after 11 h.
This experiment established a TNF α-induced SIRS mouse model to evaluate the in vivo activity of compounds of the present invention. TNF α formulated in sterile normal saline was administered to mice at a dose of 500 μg/kg by tail vein injection for modeling. Since the measurement of rectal temperature would cause mechanical injury to mice and may interfere with the experimental results, an infrared electric thermometer was used to measure the body temperature of mice and the survival condition was observed. Compounds 94 and 46 were administered at a dose of 40 mg/kg once prior to modeling. The Vehicle group was given the corresponding vehicle control.

RIPK1 = RIPK1 (Homo sapiens (Human), UniProt Q13546); experiment: In vitro kinase assay (Eurofins Kinase Profiler), IC50; format: biochemical; conditions: 0.001-10 μM, read-out: RIPK 1 (IC50)
RIPK1, sequence (Q13546 whole entry): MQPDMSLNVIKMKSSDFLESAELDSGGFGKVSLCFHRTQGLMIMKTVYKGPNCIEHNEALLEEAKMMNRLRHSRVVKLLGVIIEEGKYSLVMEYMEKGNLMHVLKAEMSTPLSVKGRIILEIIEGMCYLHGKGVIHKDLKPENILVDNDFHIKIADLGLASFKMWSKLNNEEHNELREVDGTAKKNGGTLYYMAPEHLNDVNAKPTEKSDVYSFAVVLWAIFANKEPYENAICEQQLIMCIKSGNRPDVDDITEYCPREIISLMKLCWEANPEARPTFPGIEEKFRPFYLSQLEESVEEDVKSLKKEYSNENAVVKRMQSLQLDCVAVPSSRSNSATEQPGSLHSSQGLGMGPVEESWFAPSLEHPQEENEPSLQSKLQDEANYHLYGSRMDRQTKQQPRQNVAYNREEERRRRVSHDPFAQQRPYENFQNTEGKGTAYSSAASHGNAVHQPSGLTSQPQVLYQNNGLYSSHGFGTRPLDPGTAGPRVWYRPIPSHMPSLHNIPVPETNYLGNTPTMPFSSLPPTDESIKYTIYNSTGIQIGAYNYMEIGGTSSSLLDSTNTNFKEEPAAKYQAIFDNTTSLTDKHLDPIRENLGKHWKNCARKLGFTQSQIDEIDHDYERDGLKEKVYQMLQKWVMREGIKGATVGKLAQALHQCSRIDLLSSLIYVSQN
Protocol: In vitro kinase assays were conducted using Kinase Profiler services provided by Eurofins. The experimental method was as follows: the small molecule compound to be tested (0.001-10 μM), the protein kinase to be tested were incubated with a buffer containing substrate, 10 mM magnesium acetate, and [γ-^33P-ATP], the reaction was started by adding Mg\TPmix, after incubation for a period of time at room temperature, a 3% phosphate solution was added to the buffer to stop the reaction. Subsequently, 10 μL of the reaction mixture was quantitatively pipetted onto P30 filter paper, which was washed three times with 75 mM phosphate solution and then once with methanol. The P30 filter paper was air-dried and scintillation fluid was added for scintillation counting.

[1] = tested on: RIPK1 autophosphorylation, phosphorylation of RIPK3 and MLKL; experiment: Regulation of RIPK1 signaling pathway (Western blot); format: cell-based; conditions: TNF α/Smac mimetic/Z-VAD-FMK induced, FIG. 4
Text: TNF α was purchased from PeproTech Inc., Smac mimetic and Z-VAD-FMK was purchased from Selleck Inc., RIPA lysis buffer was purchased from Beyotime Institute of Biotechnology, cocktail was purchased from MedChemExpress (MCE) Limited, PMSF protease inhibitors, sodium dodecylsulfonate SDS, and glycine were purchased from Sigma Inc., acrylamide, tris(hydroxymethyl)aminomethane Tris, ammonium persulfate APS and N,N,N′,N′-tetramethyl ethylenediamine TEMED were purchased from Wuhan Servicebio Technology Co., Ltd.
Extraction of total cellular protein: after the cells were treated by adding the corresponding concentration of Compounds 94 and 46 or blank vehicle to the cell supernatant and induced with TNF α/Smac mimetic/Z-VAD-FMK combination for a certain period of time, the supernatant was discarded, followed by washing three times with pre-cooled PBS or normal saline, then an appropriate volume of RIPA lysis buffer (containing 1% cocktail and 1% PMSF protease inhibitor) was added, the mixture was immediately placed on ice horizontally for lysis of 15 min, then the cell lysis buffer was scraped with a scraper and transferred to a 1.5 ml EP tube, and the cells were disrupted with a sonicator. The tubes were then centrifuged in a low temperature high speed centrifuge (12000 rpm, 15 min) to remove cell debris. […]

HT-29 cells = experiment: Protection against programmed necrosis of HT-29 cells (TNF α/Smac mimetic/Z-VAD-FMK, CCK8); format: cell-based; conditions: Homo sapiens
[2] = In vivo pharmacokinetic study in rats; conditions: rat, plasma, oral, 10 mg/kg
Protocol: Blood was collected from rats at different times after administration at the following time points: 0.083 h, 0.25 h, 0.5 h, 1 h, 2 h, 4 h, 8 h, and 24 h after intravenous administration; 0.25 h, 0.5 h, 1 h, 2 h, 4 h, 6 h, 8 h, and 24 h after oral administration. About 0.20 mL of blood was collected via jugular vein or other suitable means for each sample at the corresponding time, with heparin sodium for anticoagulation; the blood sample was placed on ice after collection and centrifuged within 1 h to separate the plasma (centrifugation conditions: centrifugal force 6800 g, 6 min, 2-8° C.). The collected plasma samples were stored in a refrigerator at −80° C. before analysis, and the remaining plasma samples continued to be temporarily stored in the refrigerator at −80° C. for one month after analysis.
Pharmacokinetic parameters such as AUC (0-t), T1/2, Cmax, Tmax, and MRT were calculated using WinNonlin based on plasma concentration data at different time points. The plasma drug concentration-time curve was plotted with BLQ recorded as 0. For the calculation of pharmacokinetic parameters, the concentration before administration was calculated as 0; BLQ before Cmax (including “No peak”) was calculated as 0; no BLQ (including “No peak”) appeared after Cmax participated in the calculation. The experiment was completed by Shanghai Medicilon Inc.

DSS-induced colitis = experiment: DSS-induced mouse IBD model; conditions: 40 mg/kg oral from day 7 after 2.5% DSS
Protocol: Female C57BL/6 mice weighing 17-20 g were used. […] Fresh DSS solution was changed on Days 2, 4, and 6, respectively. […] The Control group was given normal drinking water daily and corresponding vehicles orally starting on day 7. Body weights and survival rates of mice were recorded daily. Survival curves were fitted using Graphpad Prism 5.0 software. Mice (2/group) were sacrificed on day 12 and observed for changes in colon length.

[3] = TNF α/Smac mimetic/Z-VAD-FMK induced 24 h, CCK8, read-out: HT-29 (EC50)

For `C[C@H](NC(=O)c1cn(C)c2ccc(-c3ccc4nc(NC(=O)C5CC5)sc4c3)cc12)c1cccc(F)c1` [Compound 46], which Overall mortality (TNF α-induced SIRS; compared with Vehicle group) is on record?
The Overall mortality was “significantly reduced”.

And the “Body temperature of mice” value (TNF α-induced SIRS; within 11 h)?
The value was “relatively normal”.

And the pIC50 (RIPK1)?
Its pIC50 is 7.00 to 8.00.

And the “Effect on necrotic signaling pathway (RIPK1 autophosphorylation, RIPK3 and MLKL phosphorylation)” value [1]?
Its value is “affected the phosphorylation of RIPK3 and MLKL downstream of RIPK1 by inhibiting its autophosphorylation”.

What about the pEC50 (HT-29 cells; [3]) of the same compound?
Its pEC50 is > 9.00.

And the pEC50 (HT-29 cells; TSZ-induced, FIG. 3, read-out: EC50 value, programmed necrosis model of HT-29)?
The pEC50 was 10.15.

With `Cn1cc(C(=O)N2CCCC2c2cccc(F)c2)c2cc(-c3ccn4nc(NC(=O)C5CC5)nc4c3)ccc21` (centres unmarked) [Compound 168] as the compound, how does the pIC50 (RIPK1) read?
The pIC50 was 7.00 to 8.00.

And the AUC(0-t) [2]?
Its AUC(0-t) is 15300 ng·h/mL.

What about the Cmax [2] of the same compound?
Its Cmax is 6360 ng/mL.

And the Tmax [2]?
Its Tmax is 0.33 h.

What about the bioavailability [2] of the same compound?
The bioavailability was 60.9%.

And the half-life [2]?
Its half-life is 3.1 h.

And the pEC50 (HT-29 cells; [3])?
The pEC50 was > 9.00.

With `Cn1cc(C(=O)N2CCC[C@H]2c2ccc(F)cc2)c2cc(-c3ccn4nc(NC(=O)C5CC5)nc4c3)ccc21` [Compound 174] as the compound, how does the pIC50 (RIPK1) read?
The pIC50 was 8.00 to 9.00.

And the AUC(0-t) [2]?
Its AUC(0-t) is 11500 ng·h/mL.

And the Cmax [2]?
Its Cmax is 3840 ng/mL.

And the Tmax [2]?
The Tmax was 0.42 h.

And the bioavailability [2]?
Its bioavailability is 35%.

What about the half-life [2] of the same compound?
Its half-life is 1.99 h.

What about the pEC50 (HT-29 cells; [3]) of the same compound?
Its pEC50 is > 9.00.

Which results are given for `Cn1cc(C(=O)N2CCC[C@H]2c2ccc(F)c(F)c2)c2cc(-c3ccn4nc(NC(=O)C5CC5)nc4c3)ccc21` [Compound 191]?
pIC50 (RIPK1): > 9.00; AUC(0-t) [2]: 4560 ng·h/mL; Cmax [2]: 2130 ng/mL; Tmax [2]: 0.33 h; bioavailability [2]: 20.4%; half-life [2]: 4.67 h; pEC50 (HT-29 cells; [3]): > 9.00

With `Cn1cc(C(=O)N2CCC[C@H]2c2cccc(Cl)c2)c2cc(-c3ccn4nc(NC(=O)C5CC5)nc4c3)ccc21` [Compound 193] as the compound, how does the pIC50 (RIPK1) read?
The pIC50 was 7.00 to 8.00.

And the AUC(0-t) [2]?
The AUC(0-t) was 14800 ng·h/mL.

And the Cmax [2]?
Its Cmax is 2880 ng/mL.

And the Tmax [2]?
The Tmax was 2.25 h.

What about the bioavailability [2] of the same compound?
Its bioavailability is 31.7%.

What about the half-life [2] of the same compound?
The half-life was 2.74 h.

What about the pEC50 (HT-29 cells; [3]) of the same compound?
The pEC50 was 7.00 to 8.00.

With `CC[C@H](NC(=O)c1cn(CC)c2ccc(-c3ccn4nc(NC(=O)CN(C)C)nc4c3)cc12)c1ccc(F)cc1` [Compound 211] as the compound, how does the pIC50 (RIPK1) read?
The pIC50 was 8.00 to 9.00.

What about the pEC50 (HT-29 cells; [3]) of the same compound?
Its pEC50 is > 9.00.

With `CCn1cc(C(=O)N[C@@H](CF)c2ccc(F)cc2)c2cc(-c3ccn4nc(NC(=O)C5CC5)nc4c3)ccc21` [Compound 212] as the compound, how does the pIC50 (RIPK1) read?
Its pIC50 is 8.00 to 9.00.

What about the pEC50 (HT-29 cells; [3]) of the same compound?
Its pEC50 is > 9.00.

With `C[C@H]1CC[C@@H](c2ccc(F)cc2)N1C(=O)c1cn(C)c2ccc(-c3ccn4nc(NC(=O)C5CC5)nc4c3)cc12` [Compound 213] as the compound, how does the pIC50 (RIPK1) read?
The pIC50 was 8.00 to 9.00.

What about the pEC50 (HT-29 cells; [3]) of the same compound?
Its pEC50 is > 9.00.

Which results are given for `CCn1cc(C(=O)N[C@H](c2ccc(F)cc2)C2CC2)c2cc(-c3ccn4nc(NC5CC5)nc4c3)ccc21` [Compound 214]?
pIC50 (RIPK1): ≤ 6.00; pEC50 (HT-29 cells; [3]): ≤ 6.00

Which results are given for GSK3145095 [reference compound]?
Death of mice (DSS-induced colitis): occurrence of murine death; Body weight of mice (DSS-induced colitis; FIG. 6): continuous declination in body weight
